The results in this text go back to article PMC9974481, “Structure of SpoT reveals evolutionary tuning of catalysis via conformational constraint” (Nature Chemical Biology, 2022).

For assay [1], the target named is T1, SpoTAb (full-length A. baumannii SpoT) (Acinetobacter baumannii, UniProt A0A0D5YCY1).
T1 construct: gene ABUW_0309; full-length, domains HD, pseudo-SYNTH, Core, TGS, HEL, ZFD, RRM; pET28b His-TEV tag cleaved, E. coli BL21(DE3); monomer, theoretical 80 kDa; locus tag belongs to AB5075, expression gene amplified from AB19606; PDB entries not assigned in text (one is the metal-free NTD)
Kind of assay: 3H-ppGpp hydrolysis, TLC and scintillation counting. It is filed as biochemical. The following applies: 1 mM MnCl2, 5 mM Mg2+, HEPES:Polymix pH 7.5, 37 °C, 10-600 μM substrate; labelled compound.

The target of assay [2] is T1, SpoTAb (full-length A. baumannii SpoT). As to the kind of experiment: X-ray crystallography, […] Å. The following applies: crystal soaked with 20 mM ppGpp at 4 °C; Mn2+ in hydrolase active site; PDB entry is 7QPR or 7QPS, not assigned in text. It is filed as binding.

Each structure is given as a SMILES string.

Turning to `Nc1nc2c(ncn2[C@@H]2O[C@H](COP(=O)(O)OP(=O)(O)O)[C@@H](OP(=O)(O)OP(=O)(O)O)[C@H]2O)c(=O)[nH]1` [ppGpp], the KM result in assay [1] is “SpoTAb Michaelis constant (KM) and maximum reaction velocity (Vmax) of ^3H-ppGpp hydrolysis were determined”. The “X-ray crystallography, 2.5 Å” value in assay [2] was “X-ray structure of full-length catalytically active SpoTAb bound to ppGpp”.
